The target of one assay is human cathepsin K (UniProt P43236, Y175D/V274L, species not given). As to the kind of experiment: Cathepsin K Assay. The format is biochemical. Conditions: IP from dose response curve; Z-Leu-Arg-AMC substrate, pH 5.5; read-out: hrbCat K (IP (nM)).
Another assay deals with T1, human cathepsin F (Homo sapiens, UniProt Q9UBX1).
T1 sequence (Q9UBX1 271-484): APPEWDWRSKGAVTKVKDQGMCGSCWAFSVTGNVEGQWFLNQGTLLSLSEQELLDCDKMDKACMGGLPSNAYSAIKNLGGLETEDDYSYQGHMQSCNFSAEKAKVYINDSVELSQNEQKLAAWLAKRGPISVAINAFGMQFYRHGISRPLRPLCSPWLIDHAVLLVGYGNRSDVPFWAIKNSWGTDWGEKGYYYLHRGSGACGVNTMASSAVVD
As to the kind of experiment: Cathepsin F Assay. The format is biochemical. To be noted: IP from dose response curve; Z-Phe-Arg-AMC substrate, pH 5.5; read-out: hCat F (IP (nM)). In outline:
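Human cathepsin F (10 nM) preincubated 15 min at room temperature with compounds in 50 mM MES pH 5.5, 2.5 mM EDTA, 2.5 mM DTT, 10% DMSO. Z-Phe-Arg-AMC (8 μM) added; AMC release read by fluorescence (Ex 360/Em 460 nm) over 20 min, inhibition fit to dose-response model.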

On to `Cc1cc(C#N)ccc1-n1cc(-c2ccc(N3CCS(=O)(=O)CC3)cc2)c([C@@H]2CCCC[C@H]2C(=O)NC2(C#N)CC2)n1` [Example 103, (1R,2R)-2-(1-(4-cyano-2-methylphenyl)-4-(4-(1,1-dioxidothiomorpholino)phen-yl)-1H-pyrazol-3-yl)-N-(1-cyanocyclopropyl)cyclohex-anecarboxamide], for which the IC50 at human cathepsin K was found to be 2.17 nM; at human cathepsin F, 622 nM.

With `N#Cc1ccc(-n2cc(-c3ccc(N4CCS(=O)(=O)CC4)cc3)c([C@@H]3CCCC[C@H]3C(=O)NC3(C#N)CC3)n2)c(Cl)c1` [Example 104, (1R,2R)-2-(1-(2-chloro-4-cyanophenyl)-4-(4-(1,1-dioxidothiomorpholino)phen-yl)-1H-pyrazol-3-yl)-N-(1-cyanocyclopropyl)cyclohex-anecarboxamide], the IC50 on human cathepsin K is 2.02 nM; on human cathepsin F it was 411 nM.

Turning to `N#Cc1cc(Cl)ccc1-n1cc(-c2ccc(N3CCS(=O)(=O)CC3)cc2)c([C@@H]2CCCC[C@H]2C(=O)NC2(C#N)CC2)n1` [Example 105, (1R,2R)-2-(1-(4-chloro-2-cyanophenyl)-4-(4-(1,1-dioxidothiomorpholino)phen-yl)-1H-pyrazol-3-yl)-N-(1-cyanocyclopropyl)cyclohex-anecarboxamide], the figures for the IC50 at human cathepsin K and on human cathepsin F were 3.23 nM and 1260 nM, respectively.

As to `N#Cc1cc(F)ccc1-n1cc(-c2ccc(N3CCS(=O)(=O)CC3)cc2)c([C@@H]2CCCC[C@H]2C(=O)NC2(C#N)CC2)n1` [Example 106, (1R,2R)-2-(1-(2-cyano-4-fluorophenyl)-4-(4-(1,1-dioxidothiomorpholino)phen-yl)-1H-pyrazol-3-yl)-N-(1-cyanocyclopropyl)cyclohex-anecarboxamide], the IC50 turned out to be 2.88 nM on human cathepsin K and 1920 nM on human cathepsin F.

`Cc1ccc(-n2cc(-c3ccc(N4CCS(=O)(=O)CC4)cc3)c([C@@H]3CCCC[C@H]3C(=O)NC3(C#N)CC3)n2)c(C#N)c1` [Example 107, (1R,2R)-2-(1-(2-cyano-4-methylphenyl)-4-(4-(1,1-dioxidothiomorpholino)phen-yl)-1H-pyrazol-3-yl)-N-(1-cyanocyclopropyl)cyclohex-anecarboxamide]: the values for the IC50 on human cathepsin K and at human cathepsin F were 3 nM and 1400 nM, respectively.

Regarding `N#CC1(NC(=O)[C@@H]2CCC(F)(F)C[C@H]2c2nn(-c3ccc(F)cc3)cc2-c2ccc(N3CCS(=O)(=O)CC3)cc2)CC1` [Example 108, (1R,2R)-N-(1-cyanocyclopropyl)-2-(4-(4-(1,1-dioxidothiomorpholino)phen-yl)-1-(4-fluorophenyl)-1H-pyrazol-3-yl)-4,4-difluorocyclohexanecarbox-amide], the IC50 was 2.32 nM on human cathepsin K and 1010 nM at human cathepsin F.

In the case of `N#CC1(NC(=O)[C@@H]2CCCC[C@H]2c2nn(-c3ccc(C(O)(C(F)(F)F)C(F)(F)F)cc3)cc2-c2ccc(N3CCS(=O)(=O)CC3)cc2)CC1` [Example 109, (1R,2R)-N-(1-cyanocyclopropyl)-2-(4-(4-(1,1-dioxidothiomorpholino)phen-yl)-1-(4-(1,1,1,3,3,3-hexafluoro-2-hydroxypropan-2-yl)phenyl)-1H-pyrazol-3-yl)cyclohexanecarboxamide], the IC50 on human cathepsin K is 2.67 nM; on human cathepsin F, 267 nM.

`N#Cc1cc(-n2cc(-c3ccc(N4CCS(=O)(=O)CC4)cc3)c([C@@H]3CCCC[C@H]3C(=O)NC3(C#N)CC3)n2)ccc1F` [Example 110, (1R,2R)-2-(1-(3-cyano-4-fluorophenyl)-4-(4-(1,1-dioxidothiomorpholino)phen-yl)-1H-pyrazol-3-yl)-N-(1-cyanocyclopropyl)cyclohex-anecarboxamide]: the IC50 stood at 0.83 nM at human cathepsin K and 275 nM on human cathepsin F.

Consider `N#CC1(NC(=O)[C@@H]2CCCC[C@H]2c2nn(-c3ccc(OC(F)F)cc3)cc2-c2ccc(N3CCS(=O)(=O)CC3)cc2)CC1` [Example 111, (1R,2R)-N-(1-cyanocyclopropyl)-2-(1-(4-(difluoromethoxy)phenyl)-4-(4-(1,1-dioxidothiomorpholino)phen-yl)-1H-pyrazol-3-yl)cyclohexanecarboxamide], for which the IC50 at human cathepsin K was found to be 0.86 nM; at human cathepsin F, 392 nM.

Turning to `N#CC1(NC(=O)[C@@H]2C[C@@H](F)CC[C@H]2c2nn(-c3ccc(F)cc3)cc2-c2ccc(N3CCS(=O)(=O)CC3)cc2)CC1` [Example 112, (1R,2R,5S)-N-(1-cyanocyclopropyl)-2-(4-(4-(1,1-dioxidothiomorpholino)phen-yl)-1-(4-fluorophenyl)-1H-pyrazol-3-yl)-5-fluorocyclohexanecarboxamide], the IC50 at human cathepsin K worked out at 1.33 nM; at human cathepsin F, 922 nM.

`N#CC1(NC(=O)[C@@H]2CCCC[C@H]2c2nn(-c3cc(F)ccc3F)cc2-c2ccc(N3CCS(=O)(=O)CC3)cc2)CC1` [Example 114, (1R,2R)-N-(1-cyanocyclopropyl)-2-(1-(2,5-difluorophenyl)-4-(4-(1,1-dioxidothiomorpholino)phen-yl)-1H-pyrazol-3-yl)cyclohexanecarboxamide]: the IC50 on human cathepsin K was found to be 1.06 nM; at human cathepsin F, 633 nM.

For the molecule `N#CC1(F)CCN(c2ccc(-c3cn(-c4ccc(F)cc4)nc3[C@@H]3CCCC[C@H]3C(=O)NC3(C#N)CC3)cc2)CC1` [Example 115, (1R,2R)-2-(4-(4-(4-cyano-4-fluoropiperidin-1-yl)phenyl)-1-(4-fluorophenyl)-1H-pyrazol-3-yl)-N-(1-cyanocyclopropyl)cyclohex-anecarboxamide], the IC50 on human cathepsin K stood at 6.62 nM; on human cathepsin F, 804 nM.

In the case of `CC1(C)CCC(C(=O)NC2(C#N)CC2)C(c2nn(-c3ccc(F)cc3)cc2-c2ccc(N3CCS(=O)(=O)CC3)cc2)C1` [Example 117, (1S,2S, or 1R,2R)-N-(1-cyanocyclopropyl)-2-(4-(4-(1,1-dioxidothiomorpholino)phen-yl)-1-(4-fluorophenyl)-1H-pyrazol-3-yl)-4,4-dimethylcyclohexanecarbox-amide], the IC50 at human cathepsin K was determined as 13.9 nM; at human cathepsin F, 1570 nM.

On to `N#CC1(NC(=O)[C@@H]2CCCC[C@H]2c2nn(-c3cc(F)cc(F)c3)cc2-c2ccc(N3CCS(=O)(=O)CC3)cc2)CC1` [Example 118, (1R,2R)-N-(1-cyanocyclopropyl)-2-(1-(3,5-difluorophenyl)-4-(4-(1,1-dioxidothiomorpholino)phen-yl)-1H-pyrazol-3-yl)cyclohexanecarboxamide], for which the figures for the IC50 on human cathepsin K and at human cathepsin F were 0.54 nM and 273 nM, respectively.

With `N#CC1(NC(=O)[C@@H]2CCCC[C@H]2c2nn(-c3ccc(OC(F)(F)F)cc3)cc2-c2ccc(N3CCS(=O)(=O)CC3)cc2)CC1` [Example 119, (1R,2R)-N-(1-cyanocyclopropyl)-2-(4-(4-(1,1-dioxidothiomorpholino)phen-yl)-1-(4-(trifluoromethoxy)phenyl)-1H-pyrazol-3-yl)cyclohexanecarboxamide], the IC50 on human cathepsin K amounted to 1.8 nM; at human cathepsin F, 562 nM.

Take `N#CC1(NC(=O)[C@@H]2CCCC[C@H]2c2nn(-c3ccccc3C(F)(F)F)cc2-c2ccc(N3CCS(=O)(=O)CC3)cc2)CC1` [Example 120, (1R,2R)-N-(1-cyanocyclopropyl)-2-(4-(4-(1,1-dioxidothiomorpholino)phen-yl)-1-(2-(trifluoromethyl)phenyl)-1H-pyrazol-3-yl)cyclohexanecarboxamide]: the IC50 on human cathepsin K amounted to 6.72 nM; at human cathepsin F, 3120 nM.

For `N#CC1(NC(=O)[C@@H]2CCCC[C@H]2c2nn(-c3ccc(C(F)(F)F)cc3)cc2-c2ccc(N3CCS(=O)(=O)CC3)cc2)CC1` [Example 121, (1R,2R)-N-(1-cyanocyclopropyl)-2-(4-(4-(1,1-dioxidothiomorpholino)phen-yl)-1-(4-(trifluoromethyl)phenyl)-1H-pyrazol-3-yl)cyclohexanecarboxamide], the IC50 at human cathepsin K is 3.08 nM; on human cathepsin F, 649 nM.

In the case of `N#CC1(NC(=O)[C@@H]2CCCC[C@H]2c2nn(-c3cccc(OC(F)(F)F)c3)cc2-c2ccc(N3CCS(=O)(=O)CC3)cc2)CC1` [Example 122, (1R,2R)-N-(1-cyanocyclopropyl)-2-(4-(4-(1,1-dioxidothiomorpholino)phen-yl)-1-(3-(trifluoromethoxy)phenyl)-1H-pyrazol-3-yl)cyclohexanecarboxamide], the IC50 on human cathepsin K came out at 0.78 nM; at human cathepsin F, 466 nM.

For `N#CC1(NC(=O)[C@@H]2CCCC[C@H]2c2nn(-c3ccc(-n4cccn4)cc3)cc2-c2ccc(N3CCS(=O)(=O)CC3)cc2)CC1` [Example 123, (1R,2R)-2-(1-(4-(1H-pyrazol-1-yl)phenyl)-4-(4-(1,1-dioxidothiomorpholino)phen-yl)-1H-pyrazol-3-yl)-N-(1-cyanocyclopropyl)cyclohex-anecarboxamide], the IC50 amounted to 0.96 nM on human cathepsin K and 593 nM at human cathepsin F.

As to `N#CC1(NC(=O)[C@@H]2CCCC[C@H]2c2nn(-c3cccc(C(F)(F)F)c3)cc2-c2ccc(N3CCS(=O)(=O)CC3)cc2)CC1` [Example 124, (1R,2R)-N-(1-cyanocyclopropyl)-2-(4-(4-(1,1-dioxidothiomorpholino)phen-yl)-1-(3-(trifluoromethyl)phenyl)-1H-pyrazol-3-yl)cyclohexanecarboxamide], the results for the IC50 at human cathepsin K and on human cathepsin F were 1.58 nM and 588 nM, respectively.

For the molecule `N#CC1(NC(=O)[C@@H]2CCCC[C@H]2c2nn(-c3ccccc3OC(F)(F)F)cc2-c2ccc(N3CCS(=O)(=O)CC3)cc2)CC1` [Example 125, (1R,2R)-N-(1-cyanocyclopropyl)-2-(4-(4-(1,1-dioxidothiomorpholino)phen-yl)-1-(2-(trifluoromethoxy)phenyl)-1H-pyrazol-3-yl)cyclohexanecarboxamide], the results for the IC50 at human cathepsin K and at human cathepsin F were 2.18 nM and 836 nM, respectively.

These data come from patent US9656990B2, “Cathepsin cysteine protease inhibitors” (Merck Sharp & Dohme Corp., priority 2014, dated 2017).
